Like-named read-outs stand apart in the source and are kept apart here.
Assays:
[1] = system: KM12 Cliff (G595R) cell line; assay: NTRK G595R mutant cellular assay (CellTiter-Glo growth inhibition); assay type: cell-based; conditions: 72 hr, CellTiter-Glo
Protocol: (§1) NTRK Wild Type and G595R Mutant Cellular Assays Protocol
(§2) KM12 wild type colon carcinoma cell line harboring the TPM3-NTRK1 fusion protein was obtained from the National Cancer Institute (NCI). This line has been previously shown to be dependent upon the NTRK activity derived from the NTRK fusion protein for growth and survival. […] Cells were first plated in 384-well plates at 1000 cells/well in complete media (10% FBS and 1% pen/strep) and incubated overnight at 37° C. Cells were then dosed with test articles at varying concentrations using the Bravo liquid handling system. […] Each compound was run in duplicate per plate. […] 72 hr after dosing, assay plates were developed using CellTiter-Glo (Promega) and resultant luminescence was read on the Envision plate reader. IC50 determinations were calculated using a 4-parameter curve fitting algorithm

wild type NTRK1 enzyme = target: T1, wild type NTRK1 enzyme (Homo sapiens, UniProt P04629); assay: NTRK1 Wild Type Assay at 1 mM ATP; assay type: biochemical; conditions: 1 mM ATP; read-out: Enz NTRK1 IC50
T1 construct: purchased BPS Bioscience 40280
Protocol: NTRK1 Wild Type Assay at 1 mM ATP
The reaction was stopped by the addition of 70 μL of Stop buffer (100 mM HEPES pH 7.5, 0.015% Brij 35, 35 mM EDTA and 0.2% of Coating Reagent 3 (Caliper Lifesciences)). The plate was then read on a Caliper EZReader 2 (protocol settings: −1.7 psi, upstream voltage −500, downstream voltage −3000, post sample sip 35s).

[2] = system: KM12 wild type colon carcinoma cell line harboring the TPM3-NTRK1 fusion protein; assay: NTRK wild type cellular assay (CellTiter-Glo growth inhibition); assay type: cell-based; conditions: 72 hr, CellTiter-Glo, read-out: KM12 (WT) IC50
Protocol: as §1, §2

T1 sequence (P04629 440-796 limits assumed): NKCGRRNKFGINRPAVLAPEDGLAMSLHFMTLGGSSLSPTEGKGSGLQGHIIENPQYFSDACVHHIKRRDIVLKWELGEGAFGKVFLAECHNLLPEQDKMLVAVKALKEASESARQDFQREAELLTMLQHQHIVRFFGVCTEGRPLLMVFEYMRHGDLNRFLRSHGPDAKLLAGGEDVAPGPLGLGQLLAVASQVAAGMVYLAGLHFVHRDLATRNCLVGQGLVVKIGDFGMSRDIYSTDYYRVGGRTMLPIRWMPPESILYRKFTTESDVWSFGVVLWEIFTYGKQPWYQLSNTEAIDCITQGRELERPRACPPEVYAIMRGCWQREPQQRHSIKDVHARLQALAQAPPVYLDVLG

Question: `N#CC1CC(O)C(Nc2ncnc3[nH]nc(C(=O)N4CC(F)CC4c4cc(F)cc(F)c4)c23)C1` (centres unmarked) [Compound 185] was tested. Which IC50 [1] did it give?
Answer: < 0.01 µM

Question: And the IC50 (wild type NTRK1 enzyme)?
Answer: < 0.01 µM

Question: And the IC50 [2]?
Answer: < 0.01 µM

Question: Which results are given for `O=C(c1n[nH]c2ncnc(NC3CC(F)CC3O)c12)N1CC(F)CC1c1cc(F)ccc1F` (centres unmarked) [Compound 95]?
Answer: IC50 ([1]; Homo sapiens, KM12, 72 h): < 0.01 µM; IC50 (wild type NTRK1 enzyme): < 0.01 µM; IC50 ([2]; Homo sapiens, KM12, 72 h): < 0.01 µM

Question: `O=C(NCc1cc(F)ccc1F)c1n[nH]c2ncnc(N[C@@H]3CCOC[C@H]3O)c12` [Compound 11] was tested. Which IC50 ([1]; Homo sapiens, KM12, 72 h) did it give?
Answer: 0.1 to 1 µM

Question: And the IC50 (wild type NTRK1 enzyme)?
Answer: 0.1 to 1 µM

Question: And the IC50 ([2]; Homo sapiens, KM12, 72 h)?
Answer: 0.1 to 1 µM

Question: With `CN(Cc1cncc(F)c1)C(=O)c1n[nH]c2ncnc(N[C@@H]3CC[C@@H](O)[C@H]3O)c12` [Compound 5] as the compound, how does the IC50 ([1]; Homo sapiens, KM12, 72 h) read?
Answer: 0.1 to 1 µM

Question: What about the IC50 (wild type NTRK1 enzyme) of the same compound?
Answer: 0.1 to 1 µM

Question: What about the IC50 ([2]; Homo sapiens, KM12, 72 h) of the same compound?
Answer: 0.1 to 1 µM

Question: For `CN(Cc1cc(F)cc(Cl)c1F)C(=O)c1n[nH]c2ncnc(N[C@@H]3CC[C@@H](O)[C@H]3O)c12` [Compound 120], which IC50 ([1]; Homo sapiens, KM12, 72 h) is on record?
Answer: 0.01 to 0.1 µM

Question: And the IC50 (wild type NTRK1 enzyme)?
Answer: 0.01 to 0.1 µM

Question: What about the IC50 ([2]; Homo sapiens, KM12, 72 h) of the same compound?
Answer: 0.01 to 0.1 µM

Question: `N#CC1CC(O)C(Nc2ncnc3[nH]nc(C(=O)N4CC(F)CC4c4cc(F)ccc4F)c23)C1` (centres unmarked) [Compound 184] was tested. Which IC50 [1] did it give?
Answer: < 0.01 µM

Question: What about the IC50 (wild type NTRK1 enzyme) of the same compound?
Answer: < 0.01 µM

Question: And the IC50 [2]?
Answer: < 0.01 µM

Question: For `O=C(NC1(c2cc(F)ccc2F)CC1)c1n[nH]c2ncnc(N[C@@H]3COCC[C@H]3O)c12` [Compound 47], which IC50 [1] is on record?
Answer: 0.1 to 1 µM

Question: And the IC50 (wild type NTRK1 enzyme)?
Answer: 0.1 to 1 µM

Question: And the IC50 [2]?
Answer: 0.1 to 1 µM

Question: `O=C(c1n[nH]c2ncnc(N[C@@H]3COC[C@@H](O)[C@H]3O)c12)N1C[C@@H](F)C[C@@H]1c1cc(F)ccc1OC(F)(F)F` [Compound 244] was tested. Which IC50 ([1]; Homo sapiens, KM12, 72 h) did it give?
Answer: < 0.01 µM

Question: What about the IC50 (wild type NTRK1 enzyme) of the same compound?
Answer: < 0.01 µM

Question: What about the IC50 ([2]; Homo sapiens, KM12, 72 h) of the same compound?
Answer: < 0.01 µM

Question: Which results are given for `O=C(c1n[nH]c2ncnc(NC3CCOCC3O)c12)N1CC(F)CC1c1cc(F)ccc1OC(F)F` (centres unmarked) [Compound 238]?
Answer: IC50 [1]: 0.01 to 0.1 µM; IC50 [2]: 0.01 to 0.1 µM

Question: Which IC50 [1] does the source give for `O=C(c1n[nH]c2ncnc(N[C@H]3[C@H](O)[C@H](O)[C@@H]4C[C@@H]43)c12)N1C[C@@H](F)C[C@@H]1c1cc(F)cnc1F` [Compound 216] here?
Answer: < 0.01 µM

Question: And the IC50 (wild type NTRK1 enzyme)?
Answer: < 0.01 µM

Question: What about the IC50 [2] of the same compound?
Answer: < 0.01 µM

Question: Which IC50 [1] does the source give for `O=C(NCc1cc(F)ccc1F)c1n[nH]c2ncnc(NC3CC(F)CC3O)c12` (centres unmarked) [Compound 16] here?
Answer: > 1 µM

Question: And the IC50 (wild type NTRK1 enzyme)?
Answer: 0.1 to 1 µM

Question: What about the IC50 [2] of the same compound?
Answer: > 1 µM

Question: `O=C(N[C@H](CO)c1cc(F)ccc1F)c1n[nH]c2ncnc(N[C@@H]3COCC[C@H]3O)c12` [Compound 56] was tested. Which IC50 ([1]; Homo sapiens, KM12, 72 h) did it give?
Answer: 0.1 to 1 µM

Question: What about the IC50 (wild type NTRK1 enzyme) of the same compound?
Answer: 0.01 to 0.1 µM

Question: What about the IC50 ([2]; Homo sapiens, KM12, 72 h) of the same compound?
Answer: 0.1 to 1 µM

Question: Which IC50 ([1]; Homo sapiens, KM12, 72 h) does the source give for `N#Cc1cc(F)cc([C@H]2C[C@H](F)CN2C(=O)c2n[nH]c3ncnc(N[C@@H]4CCCC(F)(F)[C@H]4O)c23)c1` [Compound 230] here?
Answer: 0.01 to 0.1 µM

Question: What about the IC50 (wild type NTRK1 enzyme) of the same compound?
Answer: < 0.01 µM

Question: And the IC50 ([2]; Homo sapiens, KM12, 72 h)?
Answer: 0.01 to 0.1 µM

Question: What does the source list for `CN(Cc1cccc(C#N)c1F)C(=O)c1n[nH]c2ncnc(N[C@@H]3CC[C@@H](O)[C@H]3O)c12` [Compound 142]?
Answer: IC50 [1]: 0.1 to 1 µM; IC50 (wild type NTRK1 enzyme): 0.01 to 0.1 µM; IC50 [2]: 0.01 to 0.1 µM

Question: Which IC50 ([1]; Homo sapiens, KM12, 72 h) does the source give for `O=C(NCc1cc(F)ccc1F)c1n[nH]c2ncnc(NC3CC(O)CC3O)c12` (centres unmarked) [Compound 12] here?
Answer: > 1 µM

Question: What about the IC50 (wild type NTRK1 enzyme) of the same compound?
Answer: 0.1 to 1 µM

Question: And the IC50 ([2]; Homo sapiens, KM12, 72 h)?
Answer: 0.1 to 1 µM

Question: How did the IC50 [1] turn out when `O=C(c1n[nH]c2ncnc(NC3CCCC(O)C3O)c12)N1CC(F)CC1c1cc(F)ccc1Cl` (centres unmarked) [Compound 217] was run?
Answer: < 0.01 µM

Question: And the IC50 (wild type NTRK1 enzyme)?
Answer: < 0.01 µM

Question: And the IC50 [2]?
Answer: < 0.01 µM

Question: How did the IC50 [1] turn out when `O=C(NCc1cc(F)ccc1F)c1n[nH]c2ncnc(NC3CCC(F)C3O)c12` (centres unmarked) [Compound 18] was run?
Answer: > 1 µM

Question: What about the IC50 (wild type NTRK1 enzyme) of the same compound?
Answer: 0.1 to 1 µM

Question: What about the IC50 [2] of the same compound?
Answer: 0.1 to 1 µM

Question: What does the source list for `O=C(c1n[nH]c2ncnc(N[C@@H]3COCC[C@H]3O)c12)N1C[C@@H](F)C[C@@H]1c1cc(F)cc(F)c1F` [Compound 204]?
Answer: IC50 ([1]; Homo sapiens, KM12, 72 h): < 0.01 µM; IC50 (wild type NTRK1 enzyme): < 0.01 µM; IC50 ([2]; Homo sapiens, KM12, 72 h): < 0.01 µM

Question: With `O=C(c1n[nH]c2ncnc(N[C@H]3[C@H](O)[C@H](O)[C@@H]4C[C@@H]43)c12)N1C[C@@H](F)C[C@@H]1c1cc(F)ccc1OC(F)F` [Compound 239] as the compound, how does the IC50 [1] read?
Answer: 0.01 to 0.1 µM

Question: What about the IC50 (wild type NTRK1 enzyme) of the same compound?
Answer: < 0.01 µM

Question: What about the IC50 [2] of the same compound?
Answer: < 0.01 µM

Question: For `O=C(c1n[nH]c2ncnc(N[C@@H]3COCC[C@H]3O)c12)N1C[C@@H](F)C[C@@H]1c1cc(F)ccc1F` [Compound 92], which IC50 ([1]; Homo sapiens, KM12, 72 h) is on record?
Answer: < 0.01 µM

Question: And the IC50 (wild type NTRK1 enzyme)?
Answer: < 0.01 µM

Question: What about the IC50 ([2]; Homo sapiens, KM12, 72 h) of the same compound?
Answer: < 0.01 µM

Question: `CC(C)(O)[C@H]1C[C@@H](O)[C@H](Nc2ncnc3[nH]nc(C(=O)N4C[C@@H](F)C[C@@H]4c4cc(F)ccc4F)c23)C1` [Compound 232, ((2R,4S)-2-(2,5-difluorophenyl)-4-fluoropyrrolidin-1-yl)(4-(((1R,2R,4R)-2-hydroxy-4-(2-hydroxypropan-2-yl)cyclopentyl)amino)-1H-pyrazolo[3,4-d]pyrimidin-3-yl)methanone] was tested. Which IC50 ([1]; Homo sapiens, KM12, 72 h) did it give?
Answer: < 0.01 µM

Question: What about the IC50 (wild type NTRK1 enzyme) of the same compound?
Answer: < 0.01 µM

Question: And the IC50 ([2]; Homo sapiens, KM12, 72 h)?
Answer: < 0.01 µM

Question: For `O=C(c1n[nH]c2ncnc(N[C@H]3[C@H](O)[C@H](O)[C@@H]4C[C@@H]43)c12)N1C[C@@H](F)C[C@@H]1c1cccc(F)c1F` [Compound 189], which IC50 [1] is on record?
Answer: 0.01 to 0.1 µM

Question: And the IC50 (wild type NTRK1 enzyme)?
Answer: < 0.01 µM

Question: And the IC50 [2]?
Answer: < 0.01 µM

Source: patent US11046697B2, “Compounds and compositions useful for treating disorders related to NTRK” (BLUEPRINT MEDICINES CORPORATION, priority 2015, dated 2021)
